#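 Cultured in 96-well plates, cells were exposed to test compound for 48 hours across five concentrations. At the TGI there is no net growth.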
# Test system: LOX IMVI melanoma
# Experiment: NCI tumour cell line growth inhibition, 48 h
row,Structure (SMILES),TGI
1,CCN(CC)C(=C(C(Cl)=C(Cl)Cl)[N+](=O)[O-])N(CC)CC,> 100 µM
2,CN(C)c1ccc(/C=N\NC(=O)c2ccccc2Nc2ccccc2C(=O)N/N=C/c2ccc(N(C)C)cc2)cc1,> 100 µM
3,COC(=O)c1c(O)ccc2c1c1c(n2Cc2ccccc2)C(=O)c2ccccc2C1=O,41.6 µM
4,Cc1cc(C)nc(NS(=O)(=O)c2ccc(NNc3c4ccccc4nc4c(C(=O)Nc5ccc(S(=O)(=O)Nc6ncccn6)cc5)cccc34)cc2)n1,45.1 µM
5,CC12CCC3[C@@H](CC3(C)C)C(O)(CCC1=O)C2 (stereo partly specified),> 100 µM
6,CO[C@H]1c2cccc3cccc(c23)[C@@H]1n1[nH]c(=O)n(C(C)(C)C)c1=O,> 100 µM
7,Cc1ccc2nc(CN3CCCC(O)C3)cc(=O)n2c1 (stereo unspecified),> 100 µM
8,OC1(CCc2ccccc2)COC(C(F)(F)F)(C(F)(F)F)C1 (stereo unspecified),> 100 µM
9,CCC(C)C(C(=O)N/N=C1/SCC(=O)N1c1ccccc1)C(=O)N/N=C1/SCC(=O)N1c1ccccc1 (stereo unspecified),> 100 µM

# Test system: M14 melanoma
# Experiment: NCI tumour cell line growth inhibition, 48 h
row,Structure (SMILES),TGI
1,COC(=O)C1=C(O)C(C(=O)OC)[C@]2(O)[C@H](C(=O)OC)[C@H]1C[C@@H](c1ccc(F)cc1)[C@H]2C(=O)OC (stereo partly specified),27.5 µM
2,CCN(CC)C(=C(C(Cl)=C(Cl)Cl)[N+](=O)[O-])N(CC)CC,> 100 µM
3,CN(C)c1ccc(/C=N\NC(=O)c2ccccc2Nc2ccccc2C(=O)N/N=C/c2ccc(N(C)C)cc2)cc1,95.9 µM
4,COc1cc(/C=C(\C#N)c2nc3ccccc3o2)ccc1O,54.6 µM
5,COC(=O)c1c(O)ccc2c1c1c(n2Cc2ccccc2)C(=O)c2ccccc2C1=O,37.4 µM
6,Cc1cc(C)nc(NS(=O)(=O)c2ccc(NNc3c4ccccc4nc4c(C(=O)Nc5ccc(S(=O)(=O)Nc6ncccn6)cc5)cccc34)cc2)n1,> 100 µM
7,CC12CCC3[C@@H](CC3(C)C)C(O)(CCC1=O)C2 (stereo partly specified),> 100 µM
8,CO[C@H]1c2cccc3cccc(c23)[C@@H]1n1[nH]c(=O)n(C(C)(C)C)c1=O,> 100 µM
9,Cc1ccc2nc(CN3CCCC(O)C3)cc(=O)n2c1 (stereo unspecified),> 100 µM
10,OC1(CCc2ccccc2)COC(C(F)(F)F)(C(F)(F)F)C1 (stereo unspecified),> 100 µM
11,CCC(C)C(C(=O)N/N=C1/SCC(=O)N1c1ccccc1)C(=O)N/N=C1/SCC(=O)N1c1ccccc1 (stereo unspecified),> 100 µM

# Test system: MCF7 breast
# Experiment: NCI tumour cell line growth inhibition, 48 h
row,Structure (SMILES),TGI
1,COC(=O)C1=C(O)C(C(=O)OC)[C@]2(O)[C@H](C(=O)OC)[C@H]1C[C@@H](c1ccc(F)cc1)[C@H]2C(=O)OC (stereo partly specified),> 100 µM
2,CCN(CC)C(=C(C(Cl)=C(Cl)Cl)[N+](=O)[O-])N(CC)CC,> 100 µM
3,CN(C)c1ccc(/C=N\NC(=O)c2ccccc2Nc2ccccc2C(=O)N/N=C/c2ccc(N(C)C)cc2)cc1,> 100 µM
4,COc1cc(/C=C(\C#N)c2nc3ccccc3o2)ccc1O,> 100 µM
5,COC(=O)c1c(O)ccc2c1c1c(n2Cc2ccccc2)C(=O)c2ccccc2C1=O,35 µM
6,Cc1cc(C)nc(NS(=O)(=O)c2ccc(NNc3c4ccccc4nc4c(C(=O)Nc5ccc(S(=O)(=O)Nc6ncccn6)cc5)cccc34)cc2)n1,> 100 µM
7,CC12CCC3[C@@H](CC3(C)C)C(O)(CCC1=O)C2 (stereo partly specified),> 100 µM
8,CO[C@H]1c2cccc3cccc(c23)[C@@H]1n1[nH]c(=O)n(C(C)(C)C)c1=O,> 100 µM
9,Cc1ccc2nc(CN3CCCC(O)C3)cc(=O)n2c1 (stereo unspecified),> 100 µM
10,OC1(CCc2ccccc2)COC(C(F)(F)F)(C(F)(F)F)C1 (stereo unspecified),> 100 µM
11,CCC(C)C(C(=O)N/N=C1/SCC(=O)N1c1ccccc1)C(=O)N/N=C1/SCC(=O)N1c1ccccc1 (stereo unspecified),> 100 µM

# Test system: MDA-N
# Experiment: NCI tumour cell line growth inhibition, 48 h
row,Structure (SMILES),TGI
1,COC(=O)C1=C(O)C(C(=O)OC)[C@]2(O)[C@H](C(=O)OC)[C@H]1C[C@@H](c1ccc(F)cc1)[C@H]2C(=O)OC (stereo partly specified),17.1 µM
2,CCN(CC)C(=C(C(Cl)=C(Cl)Cl)[N+](=O)[O-])N(CC)CC,> 100 µM
3,CN(C)c1ccc(/C=N\NC(=O)c2ccccc2Nc2ccccc2C(=O)N/N=C/c2ccc(N(C)C)cc2)cc1,> 100 µM
4,COc1cc(/C=C(\C#N)c2nc3ccccc3o2)ccc1O,> 100 µM
5,COC(=O)c1c(O)ccc2c1c1c(n2Cc2ccccc2)C(=O)c2ccccc2C1=O,56.3 µM
6,Cc1cc(C)nc(NS(=O)(=O)c2ccc(NNc3c4ccccc4nc4c(C(=O)Nc5ccc(S(=O)(=O)Nc6ncccn6)cc5)cccc34)cc2)n1,> 100 µM
7,CC12CCC3[C@@H](CC3(C)C)C(O)(CCC1=O)C2 (stereo partly specified),> 100 µM
8,CO[C@H]1c2cccc3cccc(c23)[C@@H]1n1[nH]c(=O)n(C(C)(C)C)c1=O,> 100 µM
9,Cc1ccc2nc(CN3CCCC(O)C3)cc(=O)n2c1 (stereo unspecified),> 100 µM
10,OC1(CCc2ccccc2)COC(C(F)(F)F)(C(F)(F)F)C1 (stereo unspecified),> 100 µM
11,CCC(C)C(C(=O)N/N=C1/SCC(=O)N1c1ccccc1)C(=O)N/N=C1/SCC(=O)N1c1ccccc1 (stereo unspecified),94.6 µM

# Test system: NCI-H522 lung
# Experiment: NCI tumour cell line growth inhibition, 48 h
row,Structure (SMILES),TGI
1,COc1cc(/C=C(\C#N)c2nc3ccccc3o2)ccc1O,27.8 µM
2,COC(=O)c1c(O)ccc2c1c1c(n2Cc2ccccc2)C(=O)c2ccccc2C1=O,23.8 µM
3,Cc1cc(C)nc(NS(=O)(=O)c2ccc(NNc3c4ccccc4nc4c(C(=O)Nc5ccc(S(=O)(=O)Nc6ncccn6)cc5)cccc34)cc2)n1,48.9 µM
4,CO[C@H]1c2cccc3cccc(c23)[C@@H]1n1[nH]c(=O)n(C(C)(C)C)c1=O,> 100 µM
5,Cc1ccc2nc(CN3CCCC(O)C3)cc(=O)n2c1 (stereo unspecified),> 100 µM
6,OC1(CCc2ccccc2)COC(C(F)(F)F)(C(F)(F)F)C1 (stereo unspecified),> 100 µM
7,CCC(C)C(C(=O)N/N=C1/SCC(=O)N1c1ccccc1)C(=O)N/N=C1/SCC(=O)N1c1ccccc1 (stereo unspecified),> 100 µM

# Test system: SK-MEL-28 melanoma
# Experiment: NCI tumour cell line growth inhibition, 48 h
row,Structure (SMILES),TGI
1,COC(=O)C1=C(O)C(C(=O)OC)[C@]2(O)[C@H](C(=O)OC)[C@H]1C[C@@H](c1ccc(F)cc1)[C@H]2C(=O)OC (stereo partly specified),27.4 µM
2,CCN(CC)C(=C(C(Cl)=C(Cl)Cl)[N+](=O)[O-])N(CC)CC,> 100 µM
3,CN(C)c1ccc(/C=N\NC(=O)c2ccccc2Nc2ccccc2C(=O)N/N=C/c2ccc(N(C)C)cc2)cc1,> 100 µM
4,COc1cc(/C=C(\C#N)c2nc3ccccc3o2)ccc1O,58.1 µM
5,COC(=O)c1c(O)ccc2c1c1c(n2Cc2ccccc2)C(=O)c2ccccc2C1=O,31.7 µM
6,Cc1cc(C)nc(NS(=O)(=O)c2ccc(NNc3c4ccccc4nc4c(C(=O)Nc5ccc(S(=O)(=O)Nc6ncccn6)cc5)cccc34)cc2)n1,65 µM
7,CC12CCC3[C@@H](CC3(C)C)C(O)(CCC1=O)C2 (stereo partly specified),> 100 µM
8,CO[C@H]1c2cccc3cccc(c23)[C@@H]1n1[nH]c(=O)n(C(C)(C)C)c1=O,> 100 µM
9,Cc1ccc2nc(CN3CCCC(O)C3)cc(=O)n2c1 (stereo unspecified),> 100 µM
10,OC1(CCc2ccccc2)COC(C(F)(F)F)(C(F)(F)F)C1 (stereo unspecified),> 100 µM
11,CCC(C)C(C(=O)N/N=C1/SCC(=O)N1c1ccccc1)C(=O)N/N=C1/SCC(=O)N1c1ccccc1 (stereo unspecified),33.9 µM

# Test system: SNB-75 CNS
# Experiment: NCI tumour cell line growth inhibition, 48 h
row,Structure (SMILES),TGI
1,COC(=O)C1=C(O)C(C(=O)OC)[C@]2(O)[C@H](C(=O)OC)[C@H]1C[C@@H](c1ccc(F)cc1)[C@H]2C(=O)OC (stereo partly specified),73.2 µM
2,CCN(CC)C(=C(C(Cl)=C(Cl)Cl)[N+](=O)[O-])N(CC)CC,> 100 µM
3,CN(C)c1ccc(/C=N\NC(=O)c2ccccc2Nc2ccccc2C(=O)N/N=C/c2ccc(N(C)C)cc2)cc1,> 100 µM
4,COC(=O)c1c(O)ccc2c1c1c(n2Cc2ccccc2)C(=O)c2ccccc2C1=O,29.1 µM
5,Cc1cc(C)nc(NS(=O)(=O)c2ccc(NNc3c4ccccc4nc4c(C(=O)Nc5ccc(S(=O)(=O)Nc6ncccn6)cc5)cccc34)cc2)n1,73.9 µM
6,CC12CCC3[C@@H](CC3(C)C)C(O)(CCC1=O)C2 (stereo partly specified),> 100 µM
7,CO[C@H]1c2cccc3cccc(c23)[C@@H]1n1[nH]c(=O)n(C(C)(C)C)c1=O,> 100 µM
8,Cc1ccc2nc(CN3CCCC(O)C3)cc(=O)n2c1 (stereo unspecified),> 100 µM
9,OC1(CCc2ccccc2)COC(C(F)(F)F)(C(F)(F)F)C1 (stereo unspecified),> 100 µM
10,CCC(C)C(C(=O)N/N=C1/SCC(=O)N1c1ccccc1)C(=O)N/N=C1/SCC(=O)N1c1ccccc1 (stereo unspecified),> 100 µM

# Test system: SR leukemia
# Experiment: NCI tumour cell line growth inhibition, 48 h
row,Structure (SMILES),TGI
1,COC(=O)C1=C(O)C(C(=O)OC)[C@]2(O)[C@H](C(=O)OC)[C@H]1C[C@@H](c1ccc(F)cc1)[C@H]2C(=O)OC (stereo partly specified),47.5 µM
2,CCN(CC)C(=C(C(Cl)=C(Cl)Cl)[N+](=O)[O-])N(CC)CC,> 100 µM
3,CN(C)c1ccc(/C=N\NC(=O)c2ccccc2Nc2ccccc2C(=O)N/N=C/c2ccc(N(C)C)cc2)cc1,> 100 µM
4,COc1cc(/C=C(\C#N)c2nc3ccccc3o2)ccc1O,> 100 µM
5,COC(=O)c1c(O)ccc2c1c1c(n2Cc2ccccc2)C(=O)c2ccccc2C1=O,50.1 µM
6,Cc1cc(C)nc(NS(=O)(=O)c2ccc(NNc3c4ccccc4nc4c(C(=O)Nc5ccc(S(=O)(=O)Nc6ncccn6)cc5)cccc34)cc2)n1,59 µM
7,CC12CCC3[C@@H](CC3(C)C)C(O)(CCC1=O)C2 (stereo partly specified),> 100 µM
8,CO[C@H]1c2cccc3cccc(c23)[C@@H]1n1[nH]c(=O)n(C(C)(C)C)c1=O,> 100 µM
9,Cc1ccc2nc(CN3CCCC(O)C3)cc(=O)n2c1 (stereo unspecified),> 100 µM
10,OC1(CCc2ccccc2)COC(C(F)(F)F)(C(F)(F)F)C1 (stereo unspecified),> 100 µM
11,CCC(C)C(C(=O)N/N=C1/SCC(=O)N1c1ccccc1)C(=O)N/N=C1/SCC(=O)N1c1ccccc1 (stereo unspecified),> 100 µM

# Test system: SW-620 colon
# Experiment: NCI tumour cell line growth inhibition, 48 h
row,Structure (SMILES),TGI
1,COC(=O)C1=C(O)C(C(=O)OC)[C@]2(O)[C@H](C(=O)OC)[C@H]1C[C@@H](c1ccc(F)cc1)[C@H]2C(=O)OC (stereo partly specified),53.4 µM
2,CCN(CC)C(=C(C(Cl)=C(Cl)Cl)[N+](=O)[O-])N(CC)CC,> 100 µM
3,CN(C)c1ccc(/C=N\NC(=O)c2ccccc2Nc2ccccc2C(=O)N/N=C/c2ccc(N(C)C)cc2)cc1,> 100 µM
4,COC(=O)c1c(O)ccc2c1c1c(n2Cc2ccccc2)C(=O)c2ccccc2C1=O,46 µM
5,Cc1cc(C)nc(NS(=O)(=O)c2ccc(NNc3c4ccccc4nc4c(C(=O)Nc5ccc(S(=O)(=O)Nc6ncccn6)cc5)cccc34)cc2)n1,55.2 µM
6,CC12CCC3[C@@H](CC3(C)C)C(O)(CCC1=O)C2 (stereo partly specified),> 100 µM
7,CO[C@H]1c2cccc3cccc(c23)[C@@H]1n1[nH]c(=O)n(C(C)(C)C)c1=O,> 100 µM
8,Cc1ccc2nc(CN3CCCC(O)C3)cc(=O)n2c1 (stereo unspecified),> 100 µM
9,OC1(CCc2ccccc2)COC(C(F)(F)F)(C(F)(F)F)C1 (stereo unspecified),> 100 µM
10,CCC(C)C(C(=O)N/N=C1/SCC(=O)N1c1ccccc1)C(=O)N/N=C1/SCC(=O)N1c1ccccc1 (stereo unspecified),> 100 µM

# — PubChem BioAssay (NCI)
